Experimental findings from PubChem BioAssay (NCI) are described below.

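Five concentrations, 48 hours, 96-well plates. The concentration for full growth arrest is given as TGI.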 A value given as a limit tells only on which side of the number the result lay.

The first assay relates to OVCAR-4 ovarian. Description: NCI anticancer screen, dose series, 48 h.
Compound `CCOC(=O)c1cccn1S(=O)(=O)c1cc(Cl)ccc1NC(=O)CC` had a TGI greater than 100 µM.

`CC(=O)OC1COC(n2c(O)c(N=NC(N)=S)c3cc(Br)ccc32)C(OC(C)=O)C1OC(C)=O` (centres undefined) registered a TGI greater than 100 µM.

In turn, `CN(C)CCCSc1nc2ccccc2[nH]1` displayed a TGI greater than 100 µM.

For the next assay, the system named is MDA-MB-435. Description: NCI anticancer screen, dose series, 48 h.
`O=C1/C(=C/c2cccc(Br)c2)CCc2ccccc21` displayed a TGI of 25.4 µM.

As for `CC1C2(C)OC(=N)C(C#N)(C(c3ccccc3)O2)C1(C#N)C#N` (centres undefined), the TGI is greater than 100 µM.

`CCCCCCCCCCCCCCCCCCNC(=O)C(N)Cc1ccc(OCc2ccccc2)cn1` (centres undefined) displayed a TGI of 32.5 µM.

`CN(C)Nc1cc(=O)[nH]c(=O)[nH]1` displayed a TGI greater than 100 µM.

`O=[N+]([O-])/C(C(Cl)=C(Cl)Cl)=C(\N1CCOCC1)n1nnc2ccccc21` had a TGI of 41 µM.

The compound `O=c1c2c(oc3ccccc13)-c1ccccc1OC2` registered a TGI greater than 100 µM.

In the case of `CCc1c2c([nH]c(=S)c1C#N)CCC2`, the TGI was greater than 100 µM.

`O=C1/C(=C/c2cccc(F)c2)CCCc2ccccc21` gave a TGI of 29.7 µM.

With `COc1ccc2[nH]cc(CCNC(=O)[C@H](Cc3ccccc3)NC(=O)[C@@H](NCC(F)(F)F)C(C)C)c2c1`, the TGI came to 34.8 µM.

`C=CCNC1=C2C[C@@H](C)C[C@@H](OC)[C@H](OC(=O)CCN)[C@H](C)/C=C(\C)[C@@H](OC(N)=O)[C@H](OC)/C=C\C=C(/C)C(=O)NC(=CC1=O)C2=O` yielded a TGI of 13.4 µM.

`C1=NCCN2CCN(CCN=Cc3ccc(cc3)OCc3cccc(n3)COc3ccc1cc3)CC2` yielded a TGI greater than 50 µM.

Compound `CCc1n[nH]c(=O)n1/N=C/c1c(O)ccc2ccccc12` gave a TGI greater than 100 µM.

On to `CCOC(=O)c1cccn1S(=O)(=O)c1cc(Cl)ccc1NC(=O)CC`, for which the TGI was greater than 100 µM.

Consider `CN(C)CCCSc1nc2ccccc2[nH]1`, for which the TGI was greater than 100 µM.

A further assay concerns MOLT-4 leukemia. Description: NCI anticancer screen, dose series, 48 h.
In the case of `O=C1/C(=C/c2cccc(Br)c2)CCc2ccccc21`, the TGI stood at 42.1 µM.

Compound `CC1C2(C)OC(=N)C(C#N)(C(c3ccccc3)O2)C1(C#N)C#N` (centres undefined) had a TGI greater than 100 µM.

As for `CCCCCCCCCCCCCCCCCCNC(=O)C(N)Cc1ccc(OCc2ccccc2)cn1` (centres undefined), the TGI is 55 µM.

The compound `CN(C)Nc1cc(=O)[nH]c(=O)[nH]1` came in with a TGI greater than 100 µM.

The compound `O=[N+]([O-])/C(C(Cl)=C(Cl)Cl)=C(\N1CCOCC1)n1nnc2ccccc21` displayed a TGI of 72.3 µM.

Compound `O=c1c2c(oc3ccccc13)-c1ccccc1OC2` returned a TGI greater than 100 µM.

As for `CCc1c2c([nH]c(=S)c1C#N)CCC2`, the TGI is greater than 100 µM.

In turn, `O=C1/C(=C/c2cccc(F)c2)CCCc2ccccc21` yielded a TGI of 43.6 µM.

Regarding `COc1ccc2[nH]cc(CCNC(=O)[C@H](Cc3ccccc3)NC(=O)[C@@H](NCC(F)(F)F)C(C)C)c2c1`, the TGI turned out to be 69.5 µM.

In turn, `C=CCNC1=C2C[C@@H](C)C[C@@H](OC)[C@H](OC(=O)CCN)[C@H](C)/C=C(\C)[C@@H](OC(N)=O)[C@H](OC)/C=C\C=C(/C)C(=O)NC(=CC1=O)C2=O` displayed a TGI of 12.7 µM.

Take `C1=NCCN2CCN(CCN=Cc3ccc(cc3)OCc3cccc(n3)COc3ccc1cc3)CC2`: the TGI is greater than 50 µM.

`CCc1n[nH]c(=O)n1/N=C/c1c(O)ccc2ccccc12` registered a TGI greater than 100 µM.

For `CCOC(=O)c1cccn1S(=O)(=O)c1cc(Cl)ccc1NC(=O)CC`, the TGI was greater than 100 µM.

For `C=CCN1C(=O)C=C(c2ccccc2)n2ncc3cccc1c32`, the TGI was greater than 100 µM.

On to `CC(=O)OC1COC(n2c(O)c(N=NC(N)=S)c3cc(Br)ccc32)C(OC(C)=O)C1OC(C)=O` (centres undefined), for which the TGI was greater than 100 µM.

A further assay deals with NCI-H23 lung. As to the kind of experiment: NCI anticancer screen, dose series, 48 h.
`O=C1/C(=C/c2cccc(Br)c2)CCc2ccccc21`: the TGI is 32.6 µM.

As for `CC1C2(C)OC(=N)C(C#N)(C(c3ccccc3)O2)C1(C#N)C#N` (centres undefined), the TGI is 78.2 µM.

The compound `O=C1NC2ON=C(c3ccccc3)C2C2ON=C(c3ccccc3)N12` (centres undefined) showed a TGI greater than 100 µM.

On to `CCCCCCCCCCCCCCCCCCNC(=O)C(N)Cc1ccc(OCc2ccccc2)cn1` (centres undefined), for which the TGI was found to be 31.7 µM.

On to `O=[N+]([O-])/C(C(Cl)=C(Cl)Cl)=C(\N1CCOCC1)n1nnc2ccccc21`, for which the TGI amounted to 32.7 µM.

Turning to `O=c1c2c(oc3ccccc13)-c1ccccc1OC2`, the TGI was greater than 100 µM.

With `CCc1c2c([nH]c(=S)c1C#N)CCC2`, the TGI is greater than 100 µM.

With `O=C1/C(=C/c2cccc(F)c2)CCCc2ccccc21`, the TGI came out at 42.6 µM.

On to `COc1ccc2[nH]cc(CCNC(=O)[C@H](Cc3ccccc3)NC(=O)[C@@H](NCC(F)(F)F)C(C)C)c2c1`, for which the TGI turned out to be 64.6 µM.

For `C=CCNC1=C2C[C@@H](C)C[C@@H](OC)[C@H](OC(=O)CCN)[C@H](C)/C=C(\C)[C@@H](OC(N)=O)[C@H](OC)/C=C\C=C(/C)C(=O)NC(=CC1=O)C2=O`, the TGI was found to be 13 µM.

`C1=NCCN2CCN(CCN=Cc3ccc(cc3)OCc3cccc(n3)COc3ccc1cc3)CC2` displayed a TGI greater than 50 µM.

Consider `CCc1n[nH]c(=O)n1/N=C/c1c(O)ccc2ccccc12`, for which the TGI was greater than 100 µM.

`C=CCN1C(=O)C=C(c2ccccc2)n2ncc3cccc1c32` registered a TGI greater than 100 µM.

In turn, `CC(=O)OC1COC(n2c(O)c(N=NC(N)=S)c3cc(Br)ccc32)C(OC(C)=O)C1OC(C)=O` (centres undefined) gave a TGI greater than 100 µM.

On to `CN(C)CCCSc1nc2ccccc2[nH]1`, for which the TGI is greater than 100 µM.

A further assay has as its system PC-3 prostate. As to the kind of experiment: NCI anticancer screen, dose series, 48 h.
The compound `O=C1/C(=C/c2cccc(Br)c2)CCc2ccccc21` yielded a TGI of 27.7 µM.

`CC1C2(C)OC(=N)C(C#N)(C(c3ccccc3)O2)C1(C#N)C#N` (centres undefined) registered a TGI of 88.7 µM.

In the case of `O=C1NC2ON=C(c3ccccc3)C2C2ON=C(c3ccccc3)N12` (centres undefined), the TGI was greater than 100 µM.

`CCCCCCCCCCCCCCCCCCNC(=O)C(N)Cc1ccc(OCc2ccccc2)cn1` (centres undefined): the TGI amounted to 27.7 µM.

Regarding `CN(C)Nc1cc(=O)[nH]c(=O)[nH]1`, the TGI was greater than 100 µM.

Compound `O=[N+]([O-])/C(C(Cl)=C(Cl)Cl)=C(\N1CCOCC1)n1nnc2ccccc21` yielded a TGI of 30.8 µM.

Consider `O=c1c2c(oc3ccccc13)-c1ccccc1OC2`, for which the TGI was greater than 100 µM.

In turn, `CCc1c2c([nH]c(=S)c1C#N)CCC2` registered a TGI greater than 100 µM.

Consider `O=C1/C(=C/c2cccc(F)c2)CCCc2ccccc21`, for which the TGI stood at 29.1 µM.

With `COc1ccc2[nH]cc(CCNC(=O)[C@H](Cc3ccccc3)NC(=O)[C@@H](NCC(F)(F)F)C(C)C)c2c1`, the TGI was determined as 40.9 µM.

`C1=NCCN2CCN(CCN=Cc3ccc(cc3)OCc3cccc(n3)COc3ccc1cc3)CC2` returned a TGI greater than 50 µM.

Compound `CCc1n[nH]c(=O)n1/N=C/c1c(O)ccc2ccccc12` returned a TGI greater than 100 µM.

Regarding `CCOC(=O)c1cccn1S(=O)(=O)c1cc(Cl)ccc1NC(=O)CC`, the TGI is greater than 100 µM.

`C=CCN1C(=O)C=C(c2ccccc2)n2ncc3cccc1c32` had a TGI greater than 100 µM.

Another assay relates to T-47D breast. As to the kind of experiment: NCI anticancer screen, dose series, 48 h.
`CC1C2(C)OC(=N)C(C#N)(C(c3ccccc3)O2)C1(C#N)C#N` (centres undefined) gave a TGI of 55.3 µM.

Compound `CCCCCCCCCCCCCCCCCCNC(=O)C(N)Cc1ccc(OCc2ccccc2)cn1` (centres undefined) yielded a TGI of 50.7 µM.

In the case of `O=[N+]([O-])/C(C(Cl)=C(Cl)Cl)=C(\N1CCOCC1)n1nnc2ccccc21`, the TGI was found to be 56.8 µM.

Take `O=c1c2c(oc3ccccc13)-c1ccccc1OC2`: the TGI is greater than 100 µM.

Compound `C=CCNC1=C2C[C@@H](C)C[C@@H](OC)[C@H](OC(=O)CCN)[C@H](C)/C=C(\C)[C@@H](OC(N)=O)[C@H](OC)/C=C\C=C(/C)C(=O)NC(=CC1=O)C2=O` yielded a TGI of 15.5 µM.

On to `CCOC(=O)c1cccn1S(=O)(=O)c1cc(Cl)ccc1NC(=O)CC`, for which the TGI is greater than 100 µM.

In turn, `C=CCN1C(=O)C=C(c2ccccc2)n2ncc3cccc1c32` had a TGI greater than 100 µM.

`CN(C)CCCSc1nc2ccccc2[nH]1` returned a TGI greater than 100 µM.
